Values of other authors in patent US20240278494A1, “THREE-DIMENSIONAL ADDITIVE FABRICATION WITH SUPPORT FLUID” (GEORGIA TECH RESEARCH CORPORATION, priority 2021, published 2024).
Read-outs that look alike come from different tables or passages of the source.

Legend:
[1] = for ρ: Table 2, resin additives; for Density: Table 1, acrylate monomers
[2] = Table 2, resin additives
[3] = not given; remark: listed apart in the source

| Molecule | Viscosity (Table 2, resin additives) [cP] | ρ [1] [g/mL] | γ (surface tension) [2] [mN/m] | Viscosity (Table 1, acrylate monomers) [cP] | Density [1] [g/mL] | Water solubility ([3]; Table 1, acrylate monomers) [µg/mL] | Water solubility ([3]; Table 2, resin additives) [µg/mL] |
| --- | --- | --- | --- | --- | --- | --- | --- |
| OCCCO [1,3-Propanediol] | 52 | 1.0597 | 46.2 |  |  |  |  |
| C=CC(=O)OCCCC [BA, Butyl Acrylate] | 0.92 | 0.9 | 20 |  |  |  |  |
| C1CCC2CCCCC2C1 (centres unmarked) [Decalin, Decahydronaphthalene] | 1.788 | 0.896 |  |  |  |  |  |
| C=CC(=O)OCC(CC)CCCC (centres unmarked) [EHA, 2-Ethylhexyl acrylate] | 1.7 | 0.885 | 26 |  |  |  |  |
| C=CC(=O)OCCCCCCOC(=O)C=C [HDDA, 1,6-Hexanediol diacrylate] |  |  |  | 9 | 1.02 | 100 |  |
| C=CC(=O)OC [MA, Methyl Acrylate] | 0.6 | 0.95 |  |  |  |  | 50000 |
| C=C(C)C(=O)OC [MMA, Methyl Methacrylate] | 0.6 | 0.94 | 31.4 |  |  |  |  |
| CCCCCCCC/C=C\CCCCCCCC(=O)O [OA, Oleic Acid] | 27.64 | 0.895 | 31.92 |  |  |  | <100 |
| COCC(C)OC(C)=O (centres unmarked) [PGMEA, Propylene glycol methyl ether acetate] | 0.8 | 0.962 | 26.9 |  |  |  | 19800 |
| C=C(C)C(=O)OCCOCCOCCOC(=O)C(=C)C [TEGDMA, Triethylene glycol dimethacrylate] |  |  |  | 50 | 1.072 | 2410 |  |
| CCCCOC(C)=O [n-Butyl Acetate] | 1.1002 | 0.8825 | 25.3 |  |  |  | 680 |
| Dimethylbenzene [Xylene] | 0.812 | 0.865 | 28 |  |  |  | <100 |
| Urethane dimethacrylate [UDMA] |  |  |  | 6.75 | 1.129 |  |  |
